Consider nine molecules from ChEMBL document CHEMBL1137052 (Bioorg Med Chem Lett, 2004).

For data set [1], the target named is T1, Polyunsaturated fatty acid 5-lipoxygenase (Homo sapiens, UniProt P09917).
T1 sequence (P09917 whole entry): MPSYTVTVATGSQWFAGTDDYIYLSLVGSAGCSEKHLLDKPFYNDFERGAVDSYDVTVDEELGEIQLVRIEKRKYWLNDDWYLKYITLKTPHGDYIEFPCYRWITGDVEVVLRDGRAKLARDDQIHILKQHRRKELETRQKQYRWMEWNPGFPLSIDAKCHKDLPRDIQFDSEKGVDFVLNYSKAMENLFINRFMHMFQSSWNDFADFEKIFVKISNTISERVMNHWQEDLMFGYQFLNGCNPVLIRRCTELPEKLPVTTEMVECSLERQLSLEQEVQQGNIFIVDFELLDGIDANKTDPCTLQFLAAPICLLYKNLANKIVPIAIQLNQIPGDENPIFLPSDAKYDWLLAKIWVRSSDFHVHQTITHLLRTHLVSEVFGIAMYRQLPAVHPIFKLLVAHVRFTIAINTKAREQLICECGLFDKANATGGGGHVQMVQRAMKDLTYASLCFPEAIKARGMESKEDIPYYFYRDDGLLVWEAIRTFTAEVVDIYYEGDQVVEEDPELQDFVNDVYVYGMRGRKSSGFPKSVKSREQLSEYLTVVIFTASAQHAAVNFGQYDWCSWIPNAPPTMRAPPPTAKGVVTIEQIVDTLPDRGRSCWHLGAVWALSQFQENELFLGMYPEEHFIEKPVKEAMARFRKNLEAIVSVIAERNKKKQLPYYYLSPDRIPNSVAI
As to the kind of experiment: Inhibition of 5-lipoxygenase activity in human whole blood assay. It is filed as tissue-based.

Data set [2] is described as follows: Area under plasma concentration-time curve in rat upon oral/iv administration at 2 mg/kg. As to conditions: in vivo. It is filed as ADME, organism-based. More on the design: dose 2 mg/kg.
The nature of data set [3]: Metabolic clearance in rat liver microsomes. It is filed as ADME, Microsome. The following applies: read-out: Clearance. (In general: Liver microsomes are a subcellular fraction often used to study metabolism.)
Data set [4] in a line: Metabolic clearance in human liver microsomes. It is filed as ADME, Microsome. The following applies: read-out: Clearance.
Data set [5] in a line: Metabolic clearance in guinea pig liver microsomes. It is filed as ADME, Cavia porcellus, Microsome. The following applies: read-out: Clearance.
Data set [6] is described as follows: Plasma concentration of compound in guinea pig after 3h of oral dose of 2 mg/kg. Details: dose 2 mg/kg, route oral. The format is ADME, organism-based, Cavia porcellus.
Data set [7] can be described thus: Maximum plasma concentration in rat upon oral/iv administration at 2 mg/kg. Details: dose 2 mg/kg. The format is ADME, organism-based.
Data set [8] in a line: Bioavailability in rat (dose 2 mg/kg p.o./i.v.). It is filed as ADME, organism-based. The following applies: in vivo, po.
In data set [9] the test system is Cavia porcellus. Nature of the data set: Percent inhibition of histamine-induced bronchoconstriction in guinea pig after 3h of oral dose of 2 mg/kg.
Data set [10] has as its system Cavia porcellus. As to the kind of experiment: Percent inhibition of calcium ionophore-induced LTB4 production in guinea pig after 3h of oral dose of 2 mg/kg.
[11] abbreviates: read-out: Concentration, in vivo.

Turning to `NC(=O)N(O)CCC#Cc1ccc(OCCCN2CCN(C(c3ccc(F)cc3)c3ccc(F)cc3)CC2)cc1`, 90 nM corresponded to half-maximal inhibition in [1] (IC50).
In data set [2], `NC(=O)N(O)CCC#Cc1ccc(OCCN2CCC(=C3c4ccc(Cl)cc4CCc4cccnc43)CC2)cc1` yielded an exposure (AUC) of 83 ng·h/mL. Further, the IC50 in data set [1] is 185 nM. The results for the microsomal CLint in [3], in data set [4] and in data set [5] were 101 µL/min/mg, 15 µL/min/mg and 105 µL/min/mg, respectively. For the same molecule, the concentration in data set [6] (in vivo) is 72 ng/mL; in data set [6] (setting [11]), 129 nM. In [7], the Cmax is 30 ng/mL. The molecule also registered a bioavailability in data set [8] of 8%. For the same molecule, the inhibition in vivo at 2 mg/kg in the data set with Cavia porcellus [9] came out at 65%; in the data set with Cavia porcellus [10], 84%.
The molecule `NC(=O)N(O)CCC#Cc1ccc(OCCCCN2CCN([C@H](c3ccccc3)c3ccc(Cl)cc3)CC2)cc1` displayed an IC50 in [1] of 68 nM.
On to `NC(=O)N(O)CCC#Cc1ccc(OCCCN2CCN([C@H](c3ccccc3)c3ccc(Cl)cc3)CC2)cc1`, for which 96 nM corresponded to half-maximal inhibition in data set [1] (IC50). The microsomal CLint in [3] came to 108 µL/min/mg; in data set [5], 99 µL/min/mg.
For `NC(=O)N(O)CCC#Cc1ccc(OCCN2CCN(C(c3ccc(F)cc3)c3ccc(F)cc3)CC2)cc1`, in data set [1], the IC50 was found to be 48 nM. This counts as double-digit nanomolar.
On the same count and under the same terms, the value for `NC(=O)N(O)CCC#Cc1ccc(OCCCN2CCC(=C3c4ccc(Cl)cc4CCc4cccnc43)CC2)cc1` was 194 nM; that for `NC(=O)N(O)CCC#Cc1ccc(OCCCCN2CCC(=C3c4ccc(Cl)cc4CCc4cccnc43)CC2)cc1` was 57 nM.
In data set [2], `NC(=O)N(O)CCC#Cc1ccc(OCCN2CCN([C@H](c3ccccc3)c3ccc(Cl)cc3)CC2)cc1` came in with an exposure (AUC) of 300 ng·h/mL. The half-inhibitory concentration (IC50) in [1] was determined as 213 nM. In addition, the microsomal CLint in data set [3] was 48 µL/min/mg; in data set [4], 2 µL/min/mg; in [5], 19 µL/min/mg. The concentration in [6] (in vivo) was 187 ng/mL; in data set [6] (setting [11]), 350 nM. Also, the Cmax in data set [7] worked out at 66 ng/mL. In data set [8], this molecule registered a bioavailability of 23%. In addition, the figures for the inhibition in vivo at 2 mg/kg in the data set on Cavia porcellus [9] and in the data set with Cavia porcellus [10] were 62% and 41%, respectively.
As for `NC(=O)N(O)CCC#Cc1ccc(OCCCCN2CCN(C(c3ccc(F)cc3)c3ccc(F)cc3)CC2)cc1`, in data set [1], the IC50 turned out to be 89 nM. For the same molecule, the microsomal CLint in data set [3] is 138 µL/min/mg; in [4] it was 13 µL/min/mg; in data set [5] it was 111 µL/min/mg.

The IC50 is the concentration that gives 50% inhibition. Low readings indicate greater potency, high ones weaker potency. One may read the AUC as concentration integrated over time. In general, Cmax refers to the highest concentration seen after dosing. The bioavailability is dose-corrected exposure relative to a reference, in per cent. One may read the inhibition in vivo as the change of the read-out against control, counted positive when it falls.
